Source: ChEMBL document CHEMBL1141161, “Structure of aldehyde reductase holoenzyme in complex with the potent aldose reductase inhibitor fidarestat: implications for inhibitor binding and selectivity” (J Med Chem, 2005)
pIC50: −log10 of the molar value.

Target: T1, Aldo-keto reductase family 1 member A1 (Sus scrofa, UniProt P50578)
T1 sequence (P50578 whole entry): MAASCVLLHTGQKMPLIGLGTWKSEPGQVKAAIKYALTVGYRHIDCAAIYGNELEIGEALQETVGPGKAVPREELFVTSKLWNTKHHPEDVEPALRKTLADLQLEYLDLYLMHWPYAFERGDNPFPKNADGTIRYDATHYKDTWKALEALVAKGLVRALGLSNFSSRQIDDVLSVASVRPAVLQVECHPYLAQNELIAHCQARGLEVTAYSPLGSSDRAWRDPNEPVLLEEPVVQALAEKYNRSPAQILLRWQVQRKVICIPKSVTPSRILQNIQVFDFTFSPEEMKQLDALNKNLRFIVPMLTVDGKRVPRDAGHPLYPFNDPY
Experiment: Inhibitory concentration against porcine ALR1 Aldehyde reductase using DL-glyceraldehyde

| SMILES | pIC50 |
| --- | --- |
| NC(=O)[C@H]1C[C@]2(NC(=O)NC2=O)c2cc(F)ccc2O1 | 4.75 |
| NC(=O)[C@@H]1C[C@]2(NC(=O)NC2=O)c2cc(F)ccc2O1 | 5.60 |
